The results in this text go back to patent US20250154162A1, “COMPOUND FOR REGULATING AND CONTROLLING 15-PGDH ACTIVITY AND PREPARATION METHOD THEREFOR” (SCINNOHUB PHARMACEUTICAL CO., LTD., priority 2022, published 2025).

Structures are written as SMILES.

For one experiment, the target named is 15-PGDH (Homo sapiens (Human), UniProt P15428). Kind of experiment: Detection of 15-PGDH enzyme activity. It counts as biochemical. The settings on record: 15-PGDH enzyme inhibitory activity; substrates β-NAD and PGF2α. The source says: The formula was shown below: Y=Bottom+(Top-Bottom)/(1+10∧((LogIC50−X)*HillSlope)), wherein X is a log value of a concentration of the compound, and Y is inhibition rate %.

The subject of the next experiment is A549 cells. Kind of experiment: Assay of intracellular PGE2 up-regulatory activity. In kind it is cell-based. The settings on record: Homo sapiens, IL-1β induced, 8 h, relative to positive control group; for activity at 0.3 µM: 300 nM compound, read-out: PGE2 upregulation rate at 300 nM compound concentration; for activity at 0.01 µM: 10 nM compound, read-out: PGE2 upregulation rate at 10 nM compound concentration. As for the experimental part:
• a) A549 cells were inoculated in the 24-well plate, and after cell adhesion, IL-1β was added thereto for 16 h of stimulation to induce COX2 expression and PGE2 production. • b) A solution of the compound to be tested was prepared with the culture medium and gradiently diluted to 3 concentrations of 10 nM, 300 nM and 10,000 nM or 7 concentrations of 0.64 nM, 3.2 nM, 16 nM, 80 nM, 400 nM, 2000 nM and 10,000 nM, and meanwhile the positive control group (only IL-1β was added to the cells for induction) and negative control group (only cells were added in the wells without any treatment) were set up. The cell supernatants were collected after 8 h of action, in which the positive control group was induced by IL-1β without treatment of the compounds, and the negative control group was neither stimulated by IL-1β, nor treated with the compounds. • c) The PGE2 content of the samples was determined by Prostaglandin E2 Kit, and the fluorescence signal was detected by a multifunctional microplate reader (Ex/Em=337/620, 337/665).
• a) A standard curve was plotted with the PGE2 standard in the Prostaglandin E2 Kit, and the PGE2 concentration was calculated by substituting with the fluorescence signal of the sample. • b) The PGE2 upregulation rate % was calculated by using the following formula: • PGE2 upregulation rate %=(PGE2 concentration of sample group/PGE2 concentration of positive control group)×100%.

15-PGDH, sequence (P15428 whole entry): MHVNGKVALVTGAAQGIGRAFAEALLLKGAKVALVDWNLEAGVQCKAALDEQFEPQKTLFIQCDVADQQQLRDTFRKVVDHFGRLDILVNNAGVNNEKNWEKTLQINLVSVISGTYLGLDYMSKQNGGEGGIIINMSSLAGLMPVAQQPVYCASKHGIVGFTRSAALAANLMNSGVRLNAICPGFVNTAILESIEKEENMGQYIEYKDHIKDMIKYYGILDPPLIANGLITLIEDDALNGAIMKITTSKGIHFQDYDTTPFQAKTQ

On 15-PGDH, `Nc1c(C(=O)N2CCCCC2)sc2nc(-c3ccnc(F)c3)cnc12` [Example 21] had an IC50 of less than 0.5 nM. Besides, the activity at 0.3 µM in the experiment on A549 cells was determined as 211%.
The corresponding values for `Nc1c(C(=O)N2CCCCC2)sc2nc(-c3ccc(F)nc3)cnc12` [Example 46] are 0.5 to 3 nM and 251%.
The compound `Nc1c(C(=O)N2CCCCC2)sc2nc(-c3ccc4ncccc4c3)cnc12` [Example 22] came in with an IC50 against 15-PGDH of 0.5 to 3 nM. Further, in the experiment with A549 cells, the activity at 0.01 µM was found to be 282% and the activity at 0.3 µM was found to be 329%.
Take `COc1cncc(-c2cnc3c(N)c(C(=O)N4CCCCC4)sc3n2)c1` [Example 45]: on 15-PGDH, the IC50 lay within 0.5 to 3 nM. Moreover, in the experiment on A549 cells, the activity at 0.01 µM was 177% and the activity at 0.3 µM came out at 347%.
Turning to `CN(C)c1ncc(-c2cnc3c(N)c(C(=O)N4CCCCC4)sc3n2)cn1` [Example 25], the IC50 at 15-PGDH is less than 0.5 nM. For the same compound, the activity at 0.3 µM with A549 cells worked out at 276%.
As to `Nc1c(C(=O)N2CCCCC2)sc2nc(-c3cncnc3)cnc12` [Example 6], on 15-PGDH, the IC50 is 0.5 to 3 nM. Moreover, in the experiment on A549 cells, the activity at 0.01 µM was determined as 412% and the activity at 0.3 µM worked out at 450%.
For `CN1Cc2cc(-c3cnc4c(N)c(C(=O)N5CCCCC5)sc4n3)ccc2C1=O` [Example 63], the IC50 at 15-PGDH fell in the range of 0.5 to 3 nM. The activity at 0.3 µM in the experiment on A549 cells stood at 222%.
Turning to `Cn1ccc2cc(-c3cnc4c(N)c(C(=O)N5CCCCC5)sc4n3)ccc2c1=O` [Example 64], the IC50 on 15-PGDH was in the range of 0.5 to 3 nM. Also, in the experiment on A549 cells, the activity at 0.01 µM came to 173% and the activity at 0.3 µM stood at 196%.
With `CN1CCN(c2ncc(-c3cnc4c(N)c(C(=O)N5CCCCC5)sc4n3)cn2)CC1` [Example 28], the concentration for half-maximal inhibition (IC50) on 15-PGDH was in the range of 0.5 to 3 nM. For the same compound, the activity at 0.3 µM in the experiment with A549 cells is 318%.
At 15-PGDH, `Nc1c(C(=O)N2CCCCC2)sc2nc(-c3ccc4nc[nH]c4c3)cnc12` [Example 40] registered an IC50 of 0.5 to 3 nM. Besides, in the experiment on A549 cells, the activity at 0.01 µM was found to be 233% and the activity at 0.3 µM was 315%.
`Nc1ccc(-c2cnc3c(N)c(C(=O)N4CCCCC4)sc3n2)cn1` [Example 13]: the IC50 against 15-PGDH fell in the range of 0.5 to 3 nM. For the same compound, in the experiment on A549 cells, the activity at 0.3 µM turned out to be 207%.
As to `Nc1c(C(=O)N2CCCCC2)sc2nc(-c3cccs3)cnc12` [Example 5], at 15-PGDH, the IC50 was in the range of 0.5 to 3 nM. Further, the activity at 0.01 µM in the experiment on A549 cells stood at 451%.
The compound `Nc1c(C(=O)N2CCCCC2)sc2nc(-c3cncs3)cnc12` [Example 7] displayed an IC50 at 15-PGDH of 0.5 to 3 nM. Moreover, in the experiment on A549 cells, the activity at 0.01 µM was 479% and the activity at 0.3 µM came out at 758%.
At 15-PGDH, `Nc1c(C(=O)N2CCCCC2)sc2nc(-c3ccc4c(c3)OCCO4)cnc12` [Example 10] came in with an IC50 of 0.5 to 3 nM. Besides, the activity at 0.3 µM with A549 cells stood at 206%.
On 15-PGDH, `Nc1c(C(=O)N2CCCCC2)sc2nc(-c3ccc4nccn4c3)cnc12` [Example 15] showed a half-maximal inhibitory concentration (IC50) of 0.5 to 3 nM. For the same compound, the activity at 0.3 µM with A549 cells stood at 168%.
Take `Nc1c(C(=O)N2CCCCC2)sc2nc(-c3ccc4ncsc4c3)cnc12` [Example 23]: the IC50 at 15-PGDH was less than 0.5 nM. Further, in the experiment with A549 cells, the activity at 0.01 µM worked out at 254% and the activity at 0.3 µM was 375%.
As to `Cc1noc(C)c1-c1cnc2c(N)c(C(=O)N3CCCCC3)sc2n1` [Example 11], at 15-PGDH, the IC50 was in the range of 0.5 to 3 nM. Also, the activity at 0.01 µM in the experiment with A549 cells was 990%.
At 15-PGDH, `Nc1c(C(=O)N2CCCCC2)sc2nc(-c3cnc(N4CCOCC4)nc3)cnc12` [Example 24] displayed an IC50 of less than 0.5 nM. Also, in the experiment on A549 cells, the activity at 0.3 µM was 310%.
Consider `Cc1ccc(-c2cnc3c(N)c(C(=O)N4CCCCC4)sc3n2)cn1` [Example 36], for which the IC50 against 15-PGDH was in the range of 0.5 to 3 nM. In addition, in the experiment on A549 cells, the activity at 0.01 µM was 301% and the activity at 0.3 µM was determined as 384%.
On to `Nc1c(C(=O)N2CCCCC2)sc2nc(-c3cccnc3)cnc12` [Example 32], for which the IC50 at 15-PGDH lay within 3 to 10 nM. The activity at 0.01 µM in the experiment on A549 cells is 530%.
Regarding `Nc1ncc(-c2cnc3c(N)c(C(=O)N4CCCCC4)sc3n2)cn1` [Example 33], the IC50 on 15-PGDH was less than 0.5 nM. In addition, in the experiment on A549 cells, the activity at 0.01 µM was 393% and the activity at 0.3 µM stood at 754%.
As for `Cn1ccc(-c2cnc3c(N)c(C(=O)N4CCCCC4)sc3n2)cc1=O` [Example 42], the IC50 against 15-PGDH lay within 0.5 to 3 nM. Further, the activity at 0.3 µM with A549 cells is 204%.
With `Nc1c(C(=O)N2CCCCC2)sc2nc(-c3cncc4ccccc34)cnc12` [Example 26], the IC50 against 15-PGDH is 0.5 to 3 nM. In the experiment on A549 cells, the activity at 0.01 µM came to 499%.
At 15-PGDH, `Nc1c(C(=O)N2CCCCC2)sc2nc(-c3ccc4nccnc4c3)cnc12` [Example 12] showed an IC50 of 0.5 to 3 nM. Further, the activity at 0.3 µM in the experiment on A549 cells stood at 170%.
Regarding `COc1ccc(-c2cnc3c(N)c(C(=O)N4CCCCC4)sc3n2)cn1` [Example 20], the IC50 at 15-PGDH lay within 0.5 to 3 nM.
Consider `Nc1c(C(=O)N2CCCCC2)sc2nc(-c3ccc4ncoc4c3)cnc12` [Example 2, (7-amino-3-(benzo[d]oxazol-6-yl)thieno[2,3-b]pyrazin-6-yl) (piperidin-1-yl) methanone], for which the IC50 at 15-PGDH was 0.5 to 3 nM. Also, in the experiment with A549 cells, the activity at 0.01 µM amounted to 200% and the activity at 0.3 µM amounted to 348%.
Turning to `N#Cc1ccc(-c2cnc3c(N)c(C(=O)N4CCCCC4)sc3n2)cn1` [Example 47], the IC50 on 15-PGDH is less than 0.5 nM. Further, in the experiment on A549 cells, the activity at 0.01 µM worked out at 424% and the activity at 0.3 µM came out at 774%.
In turn, `Cc1cc(-c2cnc3c(N)c(C(=O)N4CCCCC4)sc3n2)ccn1` [Example 30] showed an IC50 against 15-PGDH of 0.5 to 3 nM. Moreover, the activity at 0.3 µM in the experiment with A549 cells stood at 341%.
As for `CC1CN(C(=O)c2sc3nc(-c4ccccc4)cnc3c2N)CC(C)O1` (centres unmarked) [Example 55], the IC50 at 15-PGDH was 50 to 1000 nM.
Consider `Nc1c(C(=O)N2CCCCC2)sc2nc(-c3ccc4ccccc4c3)cnc12` [Example 35], for which the IC50 at 15-PGDH fell in the range of 0.5 to 3 nM. Moreover, in the experiment with A549 cells, the activity at 0.01 µM was 208% and the activity at 0.3 µM is 231%.
As to `Nc1c(C(=O)N2CCCCC2)sc2nc(-c3c(Cl)cccc3Cl)cnc12` [Example 34], the IC50 at 15-PGDH was 0.5 to 3 nM.
